# Source: PMC9602792, “Preclinical evaluation of the epithelial sodium channel inhibitor AZD5634 and implications on human translation” (American Journal of Physiology - Lung Cellular and …, 2022)
# Key:
# ENaC = biological target: T1, ENaC (Homo sapiens, UniProt P37088+P51168+P51170); experiment: Ussing chamber short-circuit current (Isc) in normal HBEC ALI cultures from healthy donors; type: cell-based
# T1 construct: host or cells: primary normal human bronchial epithelial cells, ALI culture
# T1 sequence (P37088 1-669): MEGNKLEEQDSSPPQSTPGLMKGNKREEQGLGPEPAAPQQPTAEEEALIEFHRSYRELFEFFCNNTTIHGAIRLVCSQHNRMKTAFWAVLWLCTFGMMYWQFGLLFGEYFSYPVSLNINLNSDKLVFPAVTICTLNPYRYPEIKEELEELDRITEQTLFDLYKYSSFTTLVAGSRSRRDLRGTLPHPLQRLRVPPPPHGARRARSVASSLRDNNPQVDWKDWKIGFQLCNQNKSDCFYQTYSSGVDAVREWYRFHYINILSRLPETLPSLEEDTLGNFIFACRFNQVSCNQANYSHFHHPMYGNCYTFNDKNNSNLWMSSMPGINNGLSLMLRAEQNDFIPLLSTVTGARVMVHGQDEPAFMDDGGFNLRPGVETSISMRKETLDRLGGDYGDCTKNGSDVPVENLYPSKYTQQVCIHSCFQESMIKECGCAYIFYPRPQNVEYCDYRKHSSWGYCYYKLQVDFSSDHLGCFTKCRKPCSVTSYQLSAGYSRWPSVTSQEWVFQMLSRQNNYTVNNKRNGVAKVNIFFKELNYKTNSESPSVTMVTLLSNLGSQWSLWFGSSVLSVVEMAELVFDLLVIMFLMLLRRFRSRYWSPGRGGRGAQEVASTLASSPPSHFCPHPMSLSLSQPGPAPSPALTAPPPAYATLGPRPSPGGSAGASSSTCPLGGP
# T1 sequence (P51168 1-640): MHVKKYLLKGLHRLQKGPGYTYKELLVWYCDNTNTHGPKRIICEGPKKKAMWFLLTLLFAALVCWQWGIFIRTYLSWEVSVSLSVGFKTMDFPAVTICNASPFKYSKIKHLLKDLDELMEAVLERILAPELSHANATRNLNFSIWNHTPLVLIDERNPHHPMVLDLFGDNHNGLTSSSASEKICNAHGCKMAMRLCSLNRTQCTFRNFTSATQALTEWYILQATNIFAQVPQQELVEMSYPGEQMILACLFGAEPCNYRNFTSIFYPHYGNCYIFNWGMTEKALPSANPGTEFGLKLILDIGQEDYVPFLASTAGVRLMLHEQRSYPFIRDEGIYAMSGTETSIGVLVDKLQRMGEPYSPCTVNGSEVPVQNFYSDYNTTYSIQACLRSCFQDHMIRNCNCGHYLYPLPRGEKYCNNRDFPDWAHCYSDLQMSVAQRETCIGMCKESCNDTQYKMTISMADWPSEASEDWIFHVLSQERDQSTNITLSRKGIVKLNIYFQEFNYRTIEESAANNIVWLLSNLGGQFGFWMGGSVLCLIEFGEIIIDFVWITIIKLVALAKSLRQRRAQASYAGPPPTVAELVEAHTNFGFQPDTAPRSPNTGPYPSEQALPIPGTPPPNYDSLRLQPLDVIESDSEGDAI
# T1 sequence (P51170 1-649): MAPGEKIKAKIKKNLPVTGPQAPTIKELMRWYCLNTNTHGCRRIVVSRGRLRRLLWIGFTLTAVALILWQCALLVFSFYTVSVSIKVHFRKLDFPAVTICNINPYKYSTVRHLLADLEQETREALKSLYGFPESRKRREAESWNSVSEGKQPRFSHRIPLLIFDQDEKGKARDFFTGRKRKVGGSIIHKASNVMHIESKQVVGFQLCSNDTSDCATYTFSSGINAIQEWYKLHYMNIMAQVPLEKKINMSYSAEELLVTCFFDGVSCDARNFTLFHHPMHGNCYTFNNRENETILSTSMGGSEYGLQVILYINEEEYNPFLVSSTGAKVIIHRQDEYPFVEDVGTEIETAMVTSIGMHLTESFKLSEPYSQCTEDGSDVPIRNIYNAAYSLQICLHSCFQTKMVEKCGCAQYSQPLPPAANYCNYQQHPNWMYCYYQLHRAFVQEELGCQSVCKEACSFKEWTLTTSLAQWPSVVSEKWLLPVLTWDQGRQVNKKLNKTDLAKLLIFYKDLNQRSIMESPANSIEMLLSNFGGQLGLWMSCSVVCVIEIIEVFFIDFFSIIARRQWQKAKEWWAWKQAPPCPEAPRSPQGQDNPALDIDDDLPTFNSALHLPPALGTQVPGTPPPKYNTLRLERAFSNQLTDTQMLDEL
# Description: Normal human bronchial epithelial cell (HBEC) cultures from healthy donors were procured from MatTek Corporation (Ashland, MA), grown at an ALI on Transwell permeable supports (0.4 µm polycarbonate membrane, 12 mm insert, and Costar Corning), and used to test the in vitro potency of AZD5634. Using the same protocol, sheep ALI cultures were prepared from primary bronchial epithelial cells (native sheep tracheas were obtained from Öströö Sheep Farm, Sweden, and internally processed at AstraZeneca R&D, Gothenburg, Sweden) to validate AZD5634 potency at sheep ENaC. Experiments were performed using modified Ussing chambers containing carboxygenated Krebs solution (95% O2-5% CO2) at 37°C. Cell layers were allowed to equilibrate before being voltage-clamped at 0 mV, and then briefly clamped at 10 mV to assess transepithelial electrical resistance.
# All data are presented as means ± SE. Values of n refer to the number of cultures used in each group as appropriate. For normally distributed data, paired or unpaired Student’s t tests were used. For data that were not normally distributed, Mann–Whitney U test and Wilcoxon-matched pairs test were used. For comparisons of multiple groups, ANOVA tests were used followed by Tukey–Kramer multiple comparisons test (parametric) or ANOVA followed by Kruskal–Wallis test (nonparametric). For experiments using primary HBECs, a minimum of four different donors supplied cultures for each experiment. For the Ussing chamber data, unconstrained concentration–response curves were fitted using an in-house Microsoft Excel add-in package by nonlinear, four parameter, logistic regression analysis. From these curves, pEC50 and Emax values were taken from which mean values were calculated.
# [1] = tested on: HBECs grown under ALI conditions; experiment: Gravimetric measurement of ASL (fluid retention) in HBEC ALI cultures; type: cell-based, human; conditions: gravimetric ALI assay; concentrations of 0.1 µM and above
# Description: After 3–4 wk, the HBEC ALI cultures were washed with PBS twice before the experiment was initiated. Thirty microliters of either vehicle or test compound (10 μM) was added apically and inserts were weighed after removal of basolateral fluid as a crude but simple way to measure retention of fluid on the apical side of the airway cultures. The weighing procedure was repeated at 4, 8, and 24 h.
# people with CF = tested on: people with CF; design: method as in PMID 35227647; conditions: single-dose inhalation, NCT02950805; cited from earlier work
substance,measurement,setting,value
AZD5634,additional effect on Isc when benzamil was added,ENaC; benzamil 10 µM on final response plateau,No additional effect
same,potency of inhibition of amiloride-sensitive current (Isc) relative to amiloride,ENaC; non-CF and CF airway cells,2 to 3 logs
same,IC50,"ENaC; normal HBEC ALI cultures, normalized to 10 µM benzamil = 100%, read-out: IC50 for decrease in Isc (EC50 in Fig. 1A legend)",3.8 nM
same,potency shift versus benzamil,"ENaC; normal HBEC cultures, Isc",1 log unit
same,duration of (fluid-retaining) effect on ASL,[1],> 24 h
same,effect on MCC,people with CF,did not demonstrate augmented MCC
